Test results as given in patent publication US7705023B2, “Indoles useful in the treatment of inflammation” (Biolipox AB, priority 2005, dated 2010).

Molecular target: T1, human mPGES-1 (Homo sapiens, UniProt O14684)
T1 construct: made in house; host or cells: E. coli
T1 sequence (O14684 1-152): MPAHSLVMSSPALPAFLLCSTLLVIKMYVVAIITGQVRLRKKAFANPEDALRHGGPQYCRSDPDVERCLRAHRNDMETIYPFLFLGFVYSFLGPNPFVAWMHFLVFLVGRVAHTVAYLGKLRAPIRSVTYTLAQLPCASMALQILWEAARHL
Test: mPGES-1 biological test (conversion of PGH2 to PGE2, HPLC analysis)
Format: biochemical
Conditions: human mPGES-1 expressed in E. coli, membrane fraction; 25 min preincubation with inhibitor, 60 s with PGH2, room temperature; read-out: concentration at which 50% inhibition of mPGES-1 was observed
Description: In the assay human mPGES-1 catalyses the reaction where the substrate PGH2 is converted to PGE2. mPGES-1 is expressed in E. coli and the membrane fraction is dissolved in 20 mM NaPi-buffer pH 8.0 and stored at −80° C. In the assay human mPGES-1 is dissolved in 0.1 M KPi-buffer pH 7.35 with 2.5 mM glutathione. The stop solution consists of H2O/MeCN (7/3), containing FeCl2 (25 mM) and HCl (0.15 M). The assay is performed at room temperature in 96-well plates. Analysis of the amount of PGE2 is performed with reversed phase HPLC (Waters 2795 equipped with a 3.9×150 mm C18 column). The mobile phase consists of H2O/MeCN (7/3), containing TFA (0.056%), and absorbance is measured at 195-nm with a Waters 2487 UV-detector.
The following is added chronologically to each well: • 1. 100 μL human mPGES-1 in KPi-buffer with glutathione. Total protein concentration: 0.02 mg/mL. • 2. 1 μL inhibitor in DMSO. Incubation of the plate at room temperature for 25 minutes. • 3. 4 μL of a 0.25 mM PGH2, solution. Incubation of the plate at room temperature for 60 seconds. • 4. 100 μL stop solution. • 180 μL per sample is analyzed with HPLC.

| IC50 [nM] | SMILES |
| --- | --- |
| 62 | CC(C)Oc1ccc(-n2c(C(=O)O)cc3cc(-c4ccc(C(C)(C)C)cc4)ccc32)cc1 [Example 1, 5-(4-tert-Butylphenyl)-1-(4-isopropoxphenyl)-indole-2-carboxylic acid] |
| 610 | CC(C)Oc1ccc(-n2c(C(=O)O)cc3cc(-c4ccc(OC(C)C)nc4)ccc32)cc1 [Example 9] |
| 390 | CC(C)Oc1ccc(-c2ccc3c(c2)c(Cl)c(C(=O)O)n3-c2ccc(OC(C)C)nc2)cc1 [Example 33, 3-Chloro-5-(4-isopropoxyphenyl)-1-(6-isopropoxypyrid-3-yl)indole-2-carboxylic acid] |
| 170 | CC(C)(C)c1ccc(-c2ccc3c(c2)cc(C(=O)O)n3-c2ccc(C3CCCCC3)cc2)cc1 [Example 64, 5-(4-tert-Butylphenyl)-1-(4-cyclohexylphenyl)-1H-indole-2-carboxylic acid] |

| SMILES | IC50 [nM] |
| --- | --- |
| O=C(O)c1c(Cl)c2cc(-c3ccc(C(F)(F)F)cn3)ccc2n1-c1ccc(OC2CCCC2)nc1 [Example 36, 3-Chloro-1-(6-cyclopentoxypyrid-3-yl)-5-(5-trifluoromethylpyrid-2-yl)-1H-indole-2-carboxylic acid] | 1100 |
